# Molecular target: T1, VEGFR-3 (Homo sapiens, UniProt P35916)
# T1 construct: expressed in transfected cells; host or cells: HEK293T cells, transient transfection with Fugene-6
# Assay: Ex vivo assay: VEGFR-3 autophosphorylation in HEK cells incubated with plasma of mice dosed p.o.
# Set-up: species or system male Balb/c mice
# Settings: HEK293, mouse; 3 h after single oral administration of 30 mg/kg to male Balb/c mice; transfected HEK cells incubated with plasma (10%); read-out: Ex vivo inhibition (%) At the time
# Method: Protocol for administration of the products to the mice:
# The products are prepared in a mortar with 0.5% Tween 80 and 0.6% methylcellulose qs final volume. The suspensions are administered by gavage (10 ml/kg) to male Balb/c mice 8 to 15 weeks old. Three hours or 6 hours after single oral administrations of 30 mg/kg, animals were anaesthetized with pentobarbital and blood samples (400 μL) were collected from cava vein and transferred into glass tubes containing lithium heparin. After centrifugation (1500-2000 g for 10 minutes), plasma samples were frozen at a temperature close to −20° C. until analysis.
# In order to detect the ex vivo activity of the products in the plasmas, we have used the autophosphorylation assay in HEK cells described earlier. For this purpose, transfected cells were incubated with plasma (10%) instead of compounds. Results are expressed as percent of inhibition of VEGFR-3 autophosphorylation in comparison to untreated cells (maximum autophosphorylation) and to untransfected cells (background).
# Results are expressed as a percentage of inhibition of VEGFR-3 auto-phosphorylation of in HEK cells, in presence of a plasma sample collected (at a time), after per os (p.o.) administration of compounds. In order to evaluate the increase of this activity for compounds of the invention, a comparison with compounds of the prior art (WO 2009/007535) and subjected to the same measurement is made in table 3.
# T1 sequence (P35916 25-1363, species assumed): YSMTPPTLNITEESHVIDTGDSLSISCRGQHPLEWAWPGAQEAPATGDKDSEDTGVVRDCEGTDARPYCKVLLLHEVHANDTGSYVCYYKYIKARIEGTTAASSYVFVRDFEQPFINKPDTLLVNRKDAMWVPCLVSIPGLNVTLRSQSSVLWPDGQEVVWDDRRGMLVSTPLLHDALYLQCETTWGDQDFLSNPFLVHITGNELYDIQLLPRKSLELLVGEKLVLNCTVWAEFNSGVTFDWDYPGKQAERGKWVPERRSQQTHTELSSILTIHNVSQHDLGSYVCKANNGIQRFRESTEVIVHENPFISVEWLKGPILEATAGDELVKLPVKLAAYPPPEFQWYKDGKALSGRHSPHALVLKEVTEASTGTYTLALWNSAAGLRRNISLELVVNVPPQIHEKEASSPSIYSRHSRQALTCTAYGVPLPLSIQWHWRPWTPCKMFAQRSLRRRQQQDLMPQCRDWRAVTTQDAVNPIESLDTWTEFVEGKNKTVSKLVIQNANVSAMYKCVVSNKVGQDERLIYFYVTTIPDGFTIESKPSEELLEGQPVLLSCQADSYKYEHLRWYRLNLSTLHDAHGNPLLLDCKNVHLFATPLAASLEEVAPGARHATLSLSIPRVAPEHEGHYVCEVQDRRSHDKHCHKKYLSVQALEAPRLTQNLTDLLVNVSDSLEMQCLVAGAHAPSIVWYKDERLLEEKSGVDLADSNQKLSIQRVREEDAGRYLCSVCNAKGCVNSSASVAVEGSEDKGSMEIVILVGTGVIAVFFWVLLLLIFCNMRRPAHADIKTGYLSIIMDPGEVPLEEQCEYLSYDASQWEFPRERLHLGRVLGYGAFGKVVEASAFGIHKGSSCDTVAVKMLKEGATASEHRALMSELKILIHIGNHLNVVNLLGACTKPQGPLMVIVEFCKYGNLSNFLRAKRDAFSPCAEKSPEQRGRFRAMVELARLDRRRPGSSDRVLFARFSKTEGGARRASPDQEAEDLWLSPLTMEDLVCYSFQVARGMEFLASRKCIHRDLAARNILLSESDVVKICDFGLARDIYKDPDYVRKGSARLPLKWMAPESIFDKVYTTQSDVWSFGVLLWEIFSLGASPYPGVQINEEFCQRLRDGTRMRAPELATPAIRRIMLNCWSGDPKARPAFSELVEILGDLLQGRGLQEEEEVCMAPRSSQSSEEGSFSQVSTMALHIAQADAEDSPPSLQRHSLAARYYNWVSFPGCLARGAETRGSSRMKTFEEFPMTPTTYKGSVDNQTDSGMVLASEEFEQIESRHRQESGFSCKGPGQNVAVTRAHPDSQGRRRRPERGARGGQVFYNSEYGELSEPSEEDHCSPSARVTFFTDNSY
row,SMILES,inhibition at 30 mg/kg
1,"CCn1c(N)c(-c2ncc[nH]2)c(=O)c2ccc(C#CC(C)(O)CO)nc21 (racemic) [Compound 3, 2-Amino-7-(3,4-dihydroxy-3-methyl-but-1-ynyl)-1-ethyl-3-(1H-imidazol-2-yl)-1H-[1,8]naphthyridin-4-one]",51%
2,"CCn1c(N)c(-c2ncc[nH]2)c(=O)c2ccc(C#CC(C)(O)CC)nc21 (racemic) [Compound 16, 2-Amino-1-ethyl-7-(3-hydroxy-3-methylpent-1-yn-1-yl)-3-(1H-imidazol-2-yl)-1,8-naphthyridin-4(1H)-one]",48%

# Same assay, conditions: HEK293, mouse; 6 h after single oral administration of 30 mg/kg to male Balb/c mice; transfected HEK cells incubated with plasma (10%); read-out: Ex vivo inhibition (%) At the time
row,SMILES,inhibition at 30 mg/kg
1,"CCn1c(N)c(-c2ncc[nH]2)c(=O)c2ccc(C#CC(C)(O)c3ccccc3)nc21 (racemic) [Compound 17, 2-Amino-1-ethyl-7-(3-hydroxy-3-phenylbut-1-yn-1-yl)-3-(1H-imidazol-2-yl)-1,8-naphthyridin-4(1H)-one]",37%
2,"CCn1c(N)c(-c2ncc[nH]2)c(=O)c2ccc(C#CC(C)O)nc21 (racemic) [Compound 22, 2-Amino-1-ethyl-7-(3-hydroxybut-1-yn-1-yl)-3-(1H-imidazol-2-yl)-1,8-naphthyridin-4(1H)-one]",26%
3,"CCn1c(N)c(-c2ncc[nH]2)c(=O)c2ccc(C#C[C@@](C)(O)COC)nc21 [Compound 1, 2-Amino-1-ethyl-7-((3R)-3-hydroxy-4-methoxy-3-methyl-but-1-ynyl)-3-(1H-imidazol-2-yl)-1H-[1,8]naphthyridin-4-one]",83%

# Molecular target: T1, VEGFR-3
# Assay: Effect of compounds on VEGFR-3 auto-phosphorylation in HEK cells (ELISA)
# Type: cell-based
# Settings: autophosphorylation of VEGFR-3-Flag overexpressed in HEK293T cells, 1 h incubation with compound
# Method: Effect of Compounds on VEGFR-3 Auto-Phosphorylation in HEK Cells
# The effects of compounds in blocking VEGFR-3 autophosphorylation were quatified by ELISA after Overexpression of VEGFR-3 in HEK cells. HEK293T cells were maintained in MEM supplemented with 10% foetal calf serum (FCS) and glutamine. The day before transfection, […] were seeded on 48 wells plates and transfection was done using Fugene-6 (Roche, Basel). Fugene-6 (18 μL) was preincubated for 5 min with 282 μl of optimem. Then 3 μg DNA corresponding VFGR-3-Flag was added and left at room temperature during 10 min before distributing 200 μl on HEK cells. After 24 h, the medium was removed and replaced by a new one without serum and incubated for 1 h with different concentrations (ranging from 3 to 1000 nM) of each compound. After additional 30 min incubation with Orthovanadate (0.4 mM), cells were washed with cold PBS supplemented by orthovanadate and then lysed with 300 μl of RIPA buffer. Lysates were then centrifuged during 10 min at 10000 g. Supernatants (75 μl) were distributed in duplicate on 96 well plate precoated with the anti-Flag and left during 1 hour at room temperature. After 3 washes with TBS buffer containing 0.5% tween 20, the anti-phospho-tyrosine conjugated to the HRP was added and incubated for 1 hour at room temperature. Wells were then washed 3 times with TBS buffer containing tween 20 (0.5%) and MgCl2 (2 mM). The reaction was stopped with 50 μl of H2SO4 (2 N) and the signal was read at Envision at 485 and 530.
# The concentration-response curves were analyzed with internal software Biost@t-SPEED v2.0 using the 4-parameter logistic model according to Ratkovsky and Reedy (Ratkovsky D A., Reedy T J. Choosing near-linear parameters in the four parameters logistic model radioligands and related assays. Biometrics 1986 September 42(3):575-82.)
row,SMILES,IC50
1,"CCn1c(N)c(-c2ncc[nH]2)c(=O)c2ccc(C#CC(C)(O)CO)nc21 (racemic) [Compound 3, 2-Amino-7-(3,4-dihydroxy-3-methyl-but-1-ynyl)-1-ethyl-3-(1H-imidazol-2-yl)-1H-[1,8]naphthyridin-4-one]",125 nM
2,"CCC(O)C#Cc1ccc2c(=O)c(-c3ncc[nH]3)c(N)n(CC3CC3)c2n1 (racemic) [Compound 6, 2-Amino-1-(cyclopropylmethyl)-7-(3-hydroxypent-1-yn-1-yl)-3-(H-imidazol-2-yl)-1,8-naphthyridin-4(1H)-one]",85 nM
3,"CCn1c(N)c(-c2ncc[nH]2)c(=O)c2ccc(C#CC(C)(O)c3ccccc3F)nc21 (racemic) [Compound 9, 2-Amino-1-ethyl-7-[3-(2-fluorophenyl)-3-hydroxybut-1-yn-1-yl]-3-(1H-imidazol-2-yl)-1,8-naphthyridin-4(1H)-one]",16 nM
4,"CCC(O)C#Cc1ccc2c(=O)c(-c3ncc[nH]3)c(N)n(C3CCCC3)c2n1 (racemic) [Compound 10, 2-Amino-1-cyclopentyl-7-(3-hydroxypent-1-yn-1-yl)-3-(1H-imidazol-2-yl)-1,8-naphthyridin-4(1H)-one]",37 nM
5,"CCC(O)C#Cc1ccc2c(=O)c(-c3ncc[nH]3)c(N)n(CCCOC)c2n1 (racemic) [Compound 11, 2-Amino-7-(3-hydroxypent-1-yn-1-yl)-3-(1H-imidazol-2-yl)-1-(3-methoxypropyl)-1,8-naphthyridin-4(1H)-one]",334 nM
6,"CCC(O)C#Cc1ccc2c(=O)c(-c3ncc[nH]3)c(N)n(CCOC)c2n1 (racemic) [Compound 12, 2-Amino-7-(3-hydroxypent-1-yn-1-yl)-3-(1H-imidazol-2-yl)-1-(2-methoxyethyl)-1,8-naphthyridin-4(1H)-one]",166 nM
7,"CCn1c(N)c(-c2ncc[nH]2)c(=O)c2ccc(C#CC(C)(O)CC)nc21 (racemic) [Compound 16, 2-Amino-1-ethyl-7-(3-hydroxy-3-methylpent-1-yn-1-yl)-3-(1H-imidazol-2-yl)-1,8-naphthyridin-4(1H)-one]",119 nM
8,"CCn1c(N)c(-c2ncc[nH]2)c(=O)c2ccc(C#CC(C)(O)c3ccccc3)nc21 (racemic) [Compound 17, 2-Amino-1-ethyl-7-(3-hydroxy-3-phenylbut-1-yn-1-yl)-3-(1H-imidazol-2-yl)-1,8-naphthyridin-4(1H)-one]",13 nM
9,"CCn1c(N)c(-c2ncc[nH]2)c(=O)c2ccc(C#CC(C)(O)c3cccc(F)c3)nc21 (racemic) [Compound 18, 2-Amino-1-ethyl-7-[3-(3-fluorophenyl)-3-hydroxybut-1-yn-1-yl]-3-(1H-imidazol-2-yl)-1,8-naphthyridin-4(1H)-one]",36 nM
10,"CCn1c(N)c(-c2ncc[nH]2)c(=O)c2ccc(C#CC(O)(c3ccccc3)C(F)(F)F)nc21 (racemic) [Compound 19, 2-Amino-1-ethyl-3-(1H-imidazol-2-yl)-7-(4,4,4-trifluoro-3-hydroxy-3-phenylbut-1-yn-1-yl)-1,8-naphthyridin-4(1H)-one]",14 nM
11,"CCn1c(N)c(-c2ncc[nH]2)c(=O)c2ccc(C#CC(C)(O)c3cccs3)nc21 (racemic) [Compound 21, 2-Amino-1-ethyl-7-[3-hydroxy-3-(thiophen-2-yl)but-1-yn-1-yl]-3-(1H-imidazol-2-yl)-1,8-naphthyridin-4(1H)-one]",24 nM
12,"CCn1c(N)c(-c2ncc[nH]2)c(=O)c2ccc(C#CC(C)O)nc21 (racemic) [Compound 22, 2-Amino-1-ethyl-7-(3-hydroxybut-1-yn-1-yl)-3-(1H-imidazol-2-yl)-1,8-naphthyridin-4(1H)-one]",38 nM
13,"CCC(O)C#Cc1ccc2c(=O)c(-c3ncc[nH]3)c(N)n(CC)c2n1 (racemic) [Compound 23, 2-Amino-1-ethyl-7-(3-hydroxypent-1-yn-1-yl)-3-(1H-imidazol-2-yl)-1,8-naphthyridin-4(1H)-one]",19 nM
14,"CCCC(O)C#Cc1ccc2c(=O)c(-c3ncc[nH]3)c(N)n(CC)c2n1 (racemic) [Compound 24, 2-Amino-1-ethyl-7-(3-hydroxyhex-1-yn-1-yl)-3-(1H-imidazol-2-yl)-1,8-naphthyridin-4(1H)-one]",85 nM
15,"CCn1c(N)c(-c2ncc[nH]2)c(=O)c2ccc(C#CC(O)C(C)C)nc21 (racemic) [Compound 25, 2-Amino-1-ethyl-7-(3-hydroxy-4-methylpent-1-yn-1-yl)-3-(1H-imidazol-2-yl)-1,8-naphthyridin-4(1H)-one]",303 nM
16,"CCn1c(N)c(-c2ncc[nH]2)c(=O)c2ccc(C#CC(O)c3ccccc3)nc21 (racemic) [Compound 26, 2-Amino-1-ethyl-7-(3-hydroxy-3-phenylprop-1-yn-1-yl)-3-(1H-imidazol-2-yl)-1,8-naphthyridin-4(1H)-one]",120 nM
17,"CCn1c(N)c(-c2ncc[nH]2)c(=O)c2ccc(C#C[C@@](C)(O)COC)nc21 [Compound 1, 2-Amino-1-ethyl-7-((3R)-3-hydroxy-4-methoxy-3-methyl-but-1-ynyl)-3-(1H-imidazol-2-yl)-1H-[1,8]naphthyridin-4-one]",25 nM
18,"CCCn1c(N)c(-c2ncc[nH]2)c(=O)c2ccc(C#C[C@@](C)(O)COC)nc21 [Compound 2, 2-Amino-1-propyl-7-((3R)-3-hydroxy-4-methoxy-3-methyl-but-1-ynyl)-3-(1H-imidazol-2-yl)-1H-[1,8]naphthyridin-4-one]",18 nM
19,"CCn1c(N)c(-c2ncc[nH]2)c(=O)c2ccc(C#C[C@@](C)(O)COC)cc21 [Compound 7, 2-Amino-1-ethyl-7-[(3R)-3-hydroxy-4-methoxy-3-methylbut-1-yn-1-yl]-3-(1H-imidazol-2-yl)quinolin-4(1H)-one]",19 nM
20,"CCn1c(N)c(-c2ncc[nH]2)c(=O)c2ccc(-c3ccc(O)c(Cl)c3)nc21 [Compound 8, 2-Amino-7-(3-chloro-4-hydroxyphenyl)-1-ethyl-3-(1H-imidazol-2-yl)-1,8-naphthyridin-4(1H)-one]",73 nM
21,"CCn1c(N)c(-c2ncc[nH]2)c(=O)c2ccc(C#CC3(O)CCCC3)nc21 [Compound 14, 2-Amino-1-ethyl-7-[(1-hydroxycyclopentyl)ethynyl]-3-(1H-imidazol-2-yl)-1,8-naphthyridin-4(1H)-one]",200 nM
22,"CCn1c(N)c(-c2ncc[nH]2)c(=O)c2ccc(C#CC(C)(C)O)nc21 [Compound 15, 2-Amino-1-ethyl-7-(3-hydroxy-3-methylbut-1-yn-1-yl)-3-(1H-imidazol-2-yl)-1,8-naphthyridin-4(1H)-one]",27 nM
23,"CCn1c(N)c(-c2ncc[nH]2)c(=O)c2ccc(C#C[C@@](C)(O)CO)nc21 [Compound 27, 2-Amino-7-((3R)3,4-dihydroxy-3-methyl-but-1-ynyl)-1-ethyl-3-(1H-imidazol-2-yl)-1,8-naphthyridin-4(1H)-one]",47 nM
24,"CCn1c(N)c(-c2ncc[nH]2)c(=O)c2ccc(C#C[C@](C)(O)CO)nc21 [Compound 28, 2-Amino-7-((3S)3,4-dihydroxy-3-methyl-but-1-ynyl)-1-ethyl-3-(1H-imidazol-2-yl)-1,8-naphthyridin-4(1H)-one]",153 nM
25,"CCn1c(N)c(-c2ncc[nH]2)c(=O)c2ccc(C#C[C@](C)(O)COC)nc21 [Compound 29, 2-Amino-1-ethyl-7-((3S)-3-hydroxy-4-methoxy-3-methyl-but-1-ynyl)-3-(1H-imidazol-2-yl)-1,8-naphthyridin-4(1H)-one]",145 nM
